Where “and” joins values, the source holds several entries; their conditions need not be identical. Equal values may be shown once. Calls of active or inactive are those of the source. How the calls were made is not given here.
The compounds below were run against Peptidyl-prolyl cis-trans isomerase FKBP1A (Homo sapiens) (UniProt P62942) (assay: small-molecule binding to FKBP12 – biophysical, NMR detection (AID 608)). Settings: purified FKBP12.
Sequence of Peptidyl-prolyl cis-trans isomerase FKBP1A (Homo sapiens) (P62942 whole entry, looked up): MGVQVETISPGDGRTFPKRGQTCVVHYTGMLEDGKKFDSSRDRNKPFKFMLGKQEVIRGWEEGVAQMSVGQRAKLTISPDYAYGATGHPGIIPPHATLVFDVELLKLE
With `Cc1c(N=Cc2ccc[nH]2)c(=O)n(-c2ccccc2)n1C` the Kd was > 4 mM (inactive). For `O=C(CSc1cccc2cccnc12)N1CCOCC1`, the Kd was “inactive”. For `CS(=O)(=O)NN=C1CCCCC1`, the Kd was > 4 mM (inactive). In the case of `Cc1ccccc1C(=O)Nc1cccc(N)c1`, the Kd is reported as > 4 mM (inactive). `CC1(C)C(=O)C=C[C@@]2(C)C1CC(=O)[C@]1(C)C2CC[C@@]2(C)[C@H](c3ccoc3)OC(=O)[C@H]3O[C@]321` (stereo not given in full) was tested, and the Kd was > 4 mM (inactive). With `CCOC(=O)c1cc(C)n(C)n1` the Kd was > 4 mM (inactive). With `CSc1nc2nccc(N)n2n1` the Kd was > 4 mM (inactive). In the case of `CC(=O)NC1=C(N(C)C)C(=O)c2ccccc2C1=O`, the Kd is reported as > 4 mM (inactive). `CC(C)C(C)/C=C/C(C)[C@H]1CCC2C3=CCC4CC(=O)CC[C@]4(C)C3CC[C@@]21C` (stereo not given in full) was tested, and the Kd was > 4 mM (inactive). For `Cc1nc2ccccc2c(=O)n1NC(=O)C1CCCCC1`, the Kd was > 4 mM (inactive). `COc1cc2c3cc1Oc1cc(ccc1O)C[C@@H]1c4c(cc(OC)c(O)c4Oc4ccc(cc4)C[C@@H]3N(C)CC2)CC[N+]1(C)C` was tested, and the Kd was > 4 mM (inactive). `Cc1ccc(-c2nn(C)c(=O)c3ccccc23)cc1CO` was tested, and the Kd was > 4 mM (inactive). In the case of `NC1=NC(=O)C(Cc2cccc([N+](=O)[O-])c2)S1` (stereo not given), the Kd is reported as > 4 mM (inactive). `Cc1n[nH]c(=S)n(/N=C/c2cccs2)c1=O` was tested, and the Kd was > 4 mM (inactive). For `O=C(O)c1ccc(CN2CCOCC2)cc1`, the Kd was > 4 mM (inactive). In the case of `COc1ccc(-c2nc3nc(C)cc(C)n3n2)cc1`, the Kd is reported as > 4 mM (inactive). With `O=C(O)c1cnn2ccccc12` the Kd was > 4 mM (inactive). With `Cc1ccc(-c2nc(N)n(C(=O)c3cccnc3)n2)cc1` the Kd was > 4 mM (inactive). With `COc1ncnc(N)c1[N+](=O)[O-]` the Kd was > 4 mM (inactive). With `Nc1nc(-c2nc3ccccc3[nH]2)cs1` the Kd was 0.068 mM and 0.098 mM. With `O=C(Nc1cccc(Cl)c1)c1ccncc1` the Kd was > 4 mM (inactive). With `CC(C)NC(=S)NCc1cnn(C)c1` the Kd was > 4 mM (inactive). With `C=C(C)C1CC=C(CO)CC1` (stereo not given) the Kd was > 4 mM (inactive). With `CC(C)c1c(O)c(-c2cc3c(c(C(C)C)c2O)CCC2C(C)(C)CCC[C@]32C)cc2c1CCC1C(C)(C)CCC[C@]21C` (stereo not given in full) the Kd was > 4 mM (inactive). With `C=C[C@](C)(O)CCC=C(C)C` the Kd was > 4 mM (inactive). For `CC(=O)NCC1(c2ccccc2)CCOCC1`, the Kd was > 4 mM (inactive). For `Nc1nc(-c2ccc(O)cc2)cs1`, the Kd was > 4 mM (inactive). For `O=c1[nH]cc(N=Cc2ccc(F)cc2)c(=O)[nH]1`, the Kd was > 4 mM (inactive). In the case of `COc1cc2c(cc1O)[C@@H](Cc1ccc(O)cc1)[N+](C)(C)CC2`, the Kd is reported as > 4 mM (inactive). For `NC(=O)Nc1cccc(C(F)(F)F)c1`, the Kd was > 4 mM (inactive). `CCc1ccc(/C=N/n2cnnc2)cc1` was tested, and the Kd was > 4 mM (inactive). With `COc1ccc2[nH]cc(CCN(C)C)c2c1` the Kd was > 4 mM (inactive). `Oc1ccccc1C(=S)N1CCCCCC1` was tested, and the Kd was > 4 mM (inactive). For `COC(=O)c1cc2ccccc2cn1`, the Kd was > 4 mM (inactive). For `O=c1cnnc(NCc2ccc(F)cc2)[nH]1`, the Kd was > 4 mM (inactive). In the case of `CCOC(=O)c1cc(C)[nH]n1`, the Kd is reported as > 4 mM (inactive). `CSc1nc(NC(C)C)nc(N2CCOCC2)n1` was tested, and the Kd was > 4 mM (inactive). With `O=C(O)c1cccc(-n2cccc2)c1` the Kd was > 4 mM (inactive). For `OCc1ccc(-c2cccs2)s1`, the Kd was > 4 mM (inactive). For `CCOC(=O)c1c(C)nc2ncccn12`, the Kd was > 4 mM (inactive). `CC(=O)NC(=S)Nc1ccccc1N1CCOCC1` was tested, and the Kd was > 4 mM (inactive). In the case of `CC(=O)NC(=S)Nc1ccc(N(C)C(C)=O)cc1`, the Kd is reported as > 4 mM (inactive). `COc1cc2c(cc1-c1cc3cc4ccoc4cc3oc1=O)OCO2` was tested, and the Kd was > 4 mM (inactive). With `CN(C)C(=O)CCNS(=O)(=O)c1ccccc1` the Kd was > 4 mM (inactive). For `CC1(C)NC(=O)N(CCOc2ccc3c(c2)CCC3)C1=O`, the Kd was > 4 mM (inactive). For `O=C(NCc1ccco1)c1nc2ncccn2n1`, the Kd was > 4 mM (inactive). `Cc1cc(N)on1` was tested, and the Kd was > 4 mM (inactive). `Cn1c(=O)[nH]c(=O)c2nsnc21` was tested, and the Kd was > 4 mM (inactive). With `CC(=O)NN1C(=O)c2cccc3cccc(c23)C1=O` the Kd was > 4 mM (inactive). For `CSc1ccc2nnc(-c3cccnc3)n2n1`, the Kd was > 4 mM (inactive). In the case of `CC(=O)Nc1sc(C)c(C)c1C(N)=O`, the Kd is reported as > 4 mM (inactive). With `Cc1ccc(-c2nc(-c3cccnc3)no2)cc1` the Kd was > 4 mM (inactive). With `CC(CC(=O)O)n1cccn1` (stereo not given) the Kd was > 4 mM (inactive). `CCOC(=O)c1ccc(Oc2ccc(C)nn2)cc1` was tested, and the Kd was > 4 mM (inactive). `O=C(Nc1cccc(Cl)c1Cl)c1ccccc1OCC(=O)N1CCOCC1` was tested, and the Kd was > 4 mM (inactive). With `COc1cccc(NC(=O)c2ocnc2C)c1` the Kd was > 4 mM (inactive). In the case of `C=CC(C1=CC(=O)C(OC)=CC1=O)c1ccc(O)cc1` (stereo not given), the Kd is reported as > 4 mM (inactive). With `CC(=O)Nc1ccc(NC(=O)c2ccncc2)cc1` the Kd was > 4 mM (inactive). `CN1CCC(=NNC(=O)c2ccco2)CC1` was tested, and the Kd was > 4 mM (inactive). For `S=C(CN1CCCC1=S)N1CCOCC1`, the Kd was > 4 mM (inactive).

Reference: PubChem BioAssay AID608 (Sanford-Burnham Center for Chemical Genomics, 2007)
